From patent US20250127159A1, “PAPER-BASED CRYOPRESERVATION OF MAMMALIAN CELL AGGREGATES” (New York University in Abu Dhabi Corporation, priority 2023, published 2025)

Legend:
U87 spheroids [1] = test: WST-1 metabolic activity of U87 spheroids under drug or DMSO treatment; type: cell-based
Description: (§1) The spheroids were subjected to drug testing at varying concentrations, with DMSO serving as a solvent control. This experimental approach aimed to dissect the impact of both DMSO and drug compounds on the metabolic activity and viability of U87 spheroids.
(§2) Control tests were first conducted with DMSO at concentrations of 1%, 2.5%, 5%, 10%, and 20% (v/v) to assess its cytotoxic effects independently of drug action. The metabolic activity of the spheroids was monitored at 0, 6, 12, 24, and 48 hours, followed by a live/dead assay at 48 hours to assess cell viability.
(§3) Spheroid metabolic activity was measured at 6, 12, 24, and 48 hours using the WST-1 assay, and viability was assessed at 48 hours via the live/dead assay.

in vitro = settings: human
Description: as §1, §2, §3

U87 spheroids [2] = test: live/dead viability assay of U87 spheroids at 48 hours
Description: as §1, §2, §3

In the case of `N.N.[Cl][Pt][Cl]` [Cisplatin], the “response at higher doses” value (U87 spheroids [1]; cryopreserved spheroids, 10 μM and above) is reported as “delayed response”, the metabolic activity (U87 spheroids [1]; cryopreserved spheroids, doses as low as 0.1 μM) is reported as “metabolic activity decreasing” and the metabolic activity (U87 spheroids [1]; normally grown spheroids, doses ≥10 μM) is reported as “significantly reduced metabolic activity”.

For `C[S+](C)[O-]` [DMSO, dimethyl sulfoxide], the viability at 48 h, 1 % (v/v) (in vitro) was > 99%, the viability at 48 h, 5 % (v/v) (in vitro) was > 99% and the viability at 48 h, 10 % (v/v) (in vitro) was < 50%. For the same compound, the viability at 48 h, 20 % (v/v) (in vitro) was 5%, the cell viability (U87 spheroids [2]; 10% and 20% DMSO, particularly in cryopreserved samples) was “viability decreased” and the metabolic activity (U87 spheroids [1]; cryopreserved spheroids, 10% and 20% DMSO) was “declining sharply”. The metabolic activity (U87 spheroids [1]; normally grown spheroids, 1% DMSO (v/v), over 48 hours) was “linear increase in metabolic activity” and the metabolic activity (U87 spheroids [1]; normally grown spheroids, higher concentrations (5%, 10%, 20% DMSO)) was “temporary reductions in metabolic activity at the 6-hour mark, followed by partial recovery”.

For `Cn1nnc2c(C(N)=O)ncn2c1=O` [TMZ], the viability (U87 spheroids [2]; 400 μM) was “below 30%”, the viability (U87 spheroids [2]; 800 μM) was “below 30%” and the “metabolic activity and viability compared to normally grown spheroids” value (U87 spheroids [1]; cryopreserved spheroids, comparable doses) was “slightly higher metabolic activity and viability”. For the same compound, the response timing (U87 spheroids [1]; cryopreserved spheroids, more substantial reductions at 400 μM and 800 μM) was “slightly delayed responses” and the metabolic activity (U87 spheroids [1]; doses ≥100 μM, both normal and cryopreserved spheroids) was “metabolic activity was suppressed”.
